The results in this text go back to patent US12252481B2, “Anti-viral compounds” (Aligos Therapeutics, Inc., priority 2021, dated 2025).

SMILES strings stand for the structures. Where two headings read alike, the source gives them in different places. A value given as a limit tells only on which side of the number the result lay.

Series [1] concerns SARS-CoV-2-GHB-03021/2020. The class given is cell-based. Particulars: read-out: VeroE6 + CP (EC50).
The test system of series [2] is A549-dual_ACE2_TMPRSS2 cells.
The target of the next series is T1, human cathepsin L (Homo sapiens, UniProt P07711).
T1 construct: purchased R&D Systems
Description: Cathepsin L assay (Z-FR-AMC fluorescence). Format: biochemical. The settings on record: 10 pM human cathepsin L, 30 mins preincubation, Z-FR-AMC 2 μM. In short, it runs like this: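 Human cathepsin L (10 pM) was preincubated 30 min with compound, then reactions were started with Z-FR-AMC substrate (2 μM final). AMC fluorescence (355/460 nm) was read every 2 min over 30 min. IC50 came from a four-parameter curve fit.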

The subject of another series is Vero E6-eGFP cells. Particulars: read-out: VeroE6 + CP (CC50), absence of virus, numeric values.
The target of another series is T2, HRV3C (Human rhinovirus 14, UniProt P03303).
T2 construct: 3CLpro and HRV3C was added using a Multidrop Combi
In words: biochemical. Particulars: read-out: HRV IC50 (bound). Also noted: species or system HRV.

In series [3] the test system is HeLa cells.
The subject of series [4] is human beta-coronavirus OC43. In words: OC43 coronavirus antiviral assay in HeLa cells (cytopathic effect, cell-titer-glo). Format: cell-based. Particulars: 6 days at 33° C., read-out: EC50 (class). In general terms: Damage to the host cells serves as the signal in cytopathic effect assays.
Another series addresses T3, SARS-Cov-2 3CLpro (Severe acute respiratory syndrome coronavirus 2, UniProt P0DTD1).
T3 construct: 3CLpro and HRV3C was added using a Multidrop Combi
In words: biochemical. The settings on record: read-out: SARS-Cov-2 IC50 (class).

Series [5] has as its system B.1.1.7 lineage SARS-CoV-2. Description: microbe, parasite or virus in culture. The class given is cell-based. Particulars: read-out: A549-dual_ACE2_TMPRSS2 (EC50).
In series [6] the test system is HeLa cells. In words: Cytotoxicity in HeLa cells without OC43 virus (cell-titer-glo). Particulars: HeLa cells without OC43 virus.
Setting [7] is: read-out: A549-dual_ACE2_TMPRSS2 (CC50), assay medium without virus, MTS, numeric values.
Setting [8] is: HRV3C, 30 mins preincubation, SAMDI-MS.
The mark [9] stands for this setting: 3CLpro, 30 mins preincubation, SAMDI-MS.

T1 sequence (P07711 114-333): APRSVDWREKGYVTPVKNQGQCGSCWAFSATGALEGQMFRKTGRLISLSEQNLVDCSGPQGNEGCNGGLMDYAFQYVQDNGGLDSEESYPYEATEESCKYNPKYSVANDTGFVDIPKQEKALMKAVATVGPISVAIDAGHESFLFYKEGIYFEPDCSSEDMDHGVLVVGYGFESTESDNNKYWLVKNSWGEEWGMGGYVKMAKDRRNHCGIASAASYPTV
T2 sequence (P03303 1538-1719): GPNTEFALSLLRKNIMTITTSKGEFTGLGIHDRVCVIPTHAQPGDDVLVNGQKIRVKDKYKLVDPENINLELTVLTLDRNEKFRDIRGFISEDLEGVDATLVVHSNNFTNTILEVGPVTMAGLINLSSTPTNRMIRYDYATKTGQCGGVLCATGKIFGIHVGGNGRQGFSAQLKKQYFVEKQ

For the molecule `CC(C)(C)[C@H](NC(=O)C1CC1)C(=O)N1C[C@H]2[C@@H]([C@H]1C(=O)N[C@H](C#N)C[C@@H]1CCNC1=O)[C@H]1C=C[C@@H]2C1` [Example 21, (1R,2S,3S,6R,7S)—N-[(1S)-1-cyano-2-[(3S)-2-oxopyrrolidin-3-yl]ethyl]-4-[(2S)-2-(cyclopropylformamido)-3,3-dimethylbutanoyl]-4-azatricyclo[5.2.1.0^{2,6}]dec-8-ene-3-carboxamide], the EC50 in series [1], in [4] and in [5] was below 0.1 µM throughout. For the same molecule, the CC50 (as a rule, the concentration that lowers cell viability or growth by half) was above 10 µM in [2] (setting [7]), above 50 µM in the series with Vero E6-eGFP cells and above 100 µM in the series on HeLa cells [3]. Besides, the IC50 (commonly the concentration needed to halve the response being measured) was at least 10 µM against human cathepsin L, above 10 µM at HRV3C (setting [8]) and below 0.02 µM at SARS-Cov-2 3CLpro (setting [9]).
Regarding `CC(C)(C)[C@H](NC(=O)c1ccccn1)C(=O)N1C[C@H]2[C@@H]([C@H]1C(=O)N[C@H](C#N)C[C@@H]1CCNC1=O)[C@H]1C=C[C@@H]2C1` [Example 5, (1R,2S,3S,6R,7S)—N-[(1S)-1-cyano-2-[(3S)-2-oxopyrrolidin-3-yl]ethyl]-4-[(2S)-3,3-dimethyl-2-(pyridin-2-ylformamido)butanoyl]-4-azatricyclo[5.2.1.0^{2,6}]dec-8-ene-3-carboxamide], the EC50 – broadly, the midpoint of the concentration-response curve – in [1] was in the range of 1 to 10 µM; in series [4], 0.1 to 1 µM; in [5], 1 to 10 µM. Further, the cytotoxic concentration (CC50) in series [2] (setting [7]) was above 10 µM; with Vero E6-eGFP cells it was above 50 µM; in the series with HeLa cells [3], above 100 µM. Further, the concentration for half-maximal inhibition (IC50) is at least 10 µM against human cathepsin L, above 10 µM at HRV3C (setting [8]) and 0.2 to 2 µM on SARS-Cov-2 3CLpro (setting [9]).
On to `C#CC(C)(C)[C@H](NC(=O)C(F)(F)F)C(=O)N1C[C@H]2[C@@H]([C@H]1C(=O)N[C@H](C#N)C[C@@H]1CCNC1=O)[C@H]1C=C[C@@H]2C1` [Example 7, (1R,2S,3S,6R,7S)—N-[(1S)-1-cyano-2-[(3S)-2-oxopyrrolidin-3-yl]ethyl]-4-[(2S)-3,3-dimethyl-2-(2,2,2-trifluoroacetamido)pent-4-ynoyl]-4-azatricyclo[5.2.1.0^{2,6}]dec-8-ene-3-carboxamide], for which the 50% effective concentration (EC50) in series [1], in series [4] and in [5] was below 0.1 µM in each case. The CC50 is above 10 µM in series [2] (setting [7]), above 50 µM in the series with Vero E6-eGFP cells and above 100 µM in the series on HeLa cells [6]. Further, the IC50 against human cathepsin L was at least 10 µM; on HRV3C (setting [8]) it was above 10 µM; at SARS-Cov-2 3CLpro it was below 0.02 µM.
In the case of `CC1(C(=O)N[C@H](C(=O)N2C[C@H]3[C@@H]([C@H]2C(=O)N[C@H](C#N)C[C@@H]2CCNC2=O)[C@H]2C=C[C@@H]3C2)C(C)(C)C)CC1` [Compound 47, (1R,2S,3S,6R,7S)—N-[(1S)-1-cyano-2-[(3S)-2-oxopyrrolidin-3-yl]ethyl]-4-[(2S)-3,3-dimethyl-2-[(1-methylcyclopropyl)formamido]butanoyl]-4-azatricyclo[5.2.1.0^{2,6}]dec-8-ene-3-carboxamide], the half-maximal cytotoxic concentration (CC50) in [2] (setting [7]) is above 10 µM; in the series on Vero E6-eGFP cells, above 50 µM; in the series with HeLa cells [3], above 100 µM. Also, the IC50 against human cathepsin L was at least 10 µM; on HRV3C (setting [8]), above 10 µM; at SARS-Cov-2 3CLpro (setting [9]), 0.02 to 0.2 µM. The concentration giving a half-maximal response (EC50) in [4] lay within 0.1 to 1 µM.
As for `CC(C)(C)[C@H](NC(=O)C(F)(Cl)Cl)C(=O)N1C[C@H]2[C@@H]([C@H]1C(=O)N[C@H](C#N)C[C@@H]1CCNC1=O)[C@H]1C=C[C@@H]2C1` [Compound 48, (1R,2S,3S,6R,7S)—N-[(1S)-1-cyano-2-[(3S)-2-oxopyrrolidin-3-yl]ethyl]-4-[(2S)-2-(2,2-dichloro-2-fluoroacetamido)-3,3-dimethylbutanoyl]-4-azatricyclo[5.2.1.0^{2,6}]dec-8-ene-3-carboxamide], the EC50 in [1], in [4] and in [5] was below 0.1 µM throughout. Also, the CC50 in [2] (setting [7]) is above 10 µM; in the series on Vero E6-eGFP cells it was above 50 µM; in the series with HeLa cells [6], above 100 µM. Besides, the 50% inhibitory concentration (IC50) was at least 10 µM against human cathepsin L, above 10 µM at HRV3C (setting [8]) and below 0.02 µM at SARS-Cov-2 3CLpro.
On to `CC(C)(C)[C@H](NC(=O)c1cnccn1)C(=O)N1C[C@H]2[C@@H]([C@H]1C(=O)N[C@H](C#N)C[C@@H]1CCNC1=O)[C@H]1C=C[C@@H]2C1` [Example 6, (1R,2S,3S,6R,7S)—N-[(1S)-1-cyano-2-[(3S)-2-oxopyrrolidin-3-yl]ethyl]-4-[(2S)-3,3-dimethyl-2-(pyrazin-2-ylformamido)butanoyl]-4-azatricyclo[5.2.1.0^{2,6}]dec-8-ene-3-carboxamide], for which the EC50 in series [1] is 1 to 10 µM; in series [4] it was below 0.1 µM; in series [5], 1 to 10 µM. Besides, the CC50 is above 10 µM in [2] and above 100 µM in the series with HeLa cells [3]. In addition, the 50% inhibitory concentration (IC50) on human cathepsin L is at least 10 µM; at HRV3C, above 10 µM; at SARS-Cov-2 3CLpro, 0.02 to 0.2 µM.
Consider `N#C[C@H](C[C@@H]1CCNC1=O)NC(=O)[C@@H]1[C@@H]2[C@H](CN1C(=O)[C@@H]1C[C@]13CCCc1ccccc13)[C@@H]1C=C[C@H]2C1` (single isomer, unassigned) [Example 8], for which the values for the 50% cytotoxic concentration (CC50) (in [2] (setting [7]); in the series on Vero E6-eGFP cells; in the series on HeLa cells [3]) were above 10 µM, above 50 µM and above 100 µM, respectively. Also, the IC50 was at least 10 µM against human cathepsin L, above 10 µM on HRV3C (setting [8]) and 0.02 to 0.2 µM at SARS-Cov-2 3CLpro (setting [9]). The 50% effective concentration (EC50) was 0.1 to 1 µM in series [4] and below 0.1 µM in [5].
Consider `C#CC(C)(C)[C@H](NC(=O)C1(F)CC1)C(=O)N1C[C@H]2[C@@H]([C@H]1C(=O)N[C@H](C#N)C[C@@H]1CCNC1=O)[C@H]1C=C[C@@H]2C1` [Compound 63, (1R,2S,3S,6R,7S)—N-[(1S)-1-cyano-2-[(3S)-2-oxopyrrolidin-3-yl]ethyl]-4-[(2S)-2-[(1-fluorocyclopropyl)formamido]-3,3-dimethylpent-4-ynoyl]-4-azatricyclo[5.2.1.0^{2,6}]dec-8-ene-3-carboxamide], for which the results for the CC50 (in [2] (setting [7]); in the series with HeLa cells [3]) were above 10 µM and above 100 µM, respectively. Further, the half-maximal inhibitory concentration (IC50) is at least 10 µM against human cathepsin L, above 10 µM on HRV3C (setting [8]) and below 0.02 µM at SARS-Cov-2 3CLpro (setting [9]). Also, the EC50 in [4] and in series [5] was below 0.1 µM each time.
On to `C[C@@H](OC(C)(C)C)[C@H](NC(=O)C(F)(F)F)C(=O)N1C[C@H]2[C@@H]([C@H]1C(=O)N[C@H](C#N)C[C@@H]1CCNC1=O)[C@H]1C=C[C@@H]2C1` [Example 3, (1R,2S,3S,6R,7S)-4-[(2S,3R)-3-(tert-butoxy)-2-(2,2,2-trifluoroacetamido)butanoyl]-N-[(1S)-1-cyano-2-[(3S)-2-oxopyrrolidin-3-yl]ethyl]-4-azatricyclo[5.2.1.0^{2,6}]dec-8-ene-3-carboxamide], for which the EC50 in series [1], in [4] and in series [5] was below 0.1 µM each time. In addition, the CC50 in [2] (setting [7]) is above 10 µM; with Vero E6-eGFP cells, above 50 µM; in the series with HeLa cells [6], above 100 µM. The IC50 is at least 10 µM against human cathepsin L, above 10 µM at HRV3C (setting [8]) and below 0.02 µM on SARS-Cov-2 3CLpro.
